Experiments:
Phakopsora pachyrhizi [1] = test: Use Example 3: protective control of soybean rust on soybeans (PHAKPA P2); type: in vivo; conditions: 16 ppm, 2 days before inoculation, F129L strain, up to 14 days, untreated 90
Experimental: (§1) The compound was dissolved in a mixture of acetone and/or dimethylsulfoxide and the wetting agent/emulsifier Wettol, which is based on ethoxylated alkylphenoles, in a ratio (volume) solvent-emulsifier of 99 to 1 to give a total volume of 5 ml. Subsequently, water was added to total volume of 100 ml. This stock solution was then diluted with the described solvent-emulsifier-water mixture to the final concentration given in the tables below.
Use Example 3. Protective Control of Soybean Rust on Soybeans Caused by Phakopsora pachyrhizi (PHAKPA P2)
(§2) Leaves of potted soybean seedlings were sprayed to run-off with the previously described spray solution, containing the concentration of active ingredient or their mixture as described below. The plants were allowed to air-dry. The trial plants were cultivated for 2 days in a greenhouse chamber at 23-27° C. and a relative humidity between 60 and 80%. Then the plants were inoculated with spores of Phakopsora pachyrhizi. The strain used contains the amino acid substitution F129L in the mitochondrial cytochrome b protein conferring resistance to Qo inhibitors. To ensure the success the artificial inoculation, the plants were transferred to a humid chamber with a relative humidity of about 95% and 20 to 24° C. for 24 hr. The trial plants were cultivated for up to 14 days in a greenhouse chamber at 23 to 27° C. and a relative humidity between 60 and 80%. The extent of fungal attack on the leaves was visually assessed as % diseased leaf area, the disease level of untreated controls was usually higher than 85%.

Pyrenophora teres = test: Use Example 11: control of net blotch on barley (PYRNTE P1); type: in vivo, Pyrenophora (syn. Drechslera) teres; conditions: F129L strain, inoculated the next day, 16 ppm, untreated 75%
Experimental: as §1
Use Example 11. Control of Net Blotch on Barley Caused by Pyrenophora teres (PYRNTE P1)
The first fully developed leaves of potted barley plants were sprayed to run-off previously described spray solution, containing the concentration of active ingredient or their mixture mentioned in the table below. The next day the treated plants were inoculated with an aqueous spore suspension Pyrenophora (syn. Drechslera) teres. The strain used contains the amino acid substitution F129L in the mitochondrial cytochrome b protein conferring resistance to Qo inhibitors. Then the trial plants were cultivated for up to 19 days at 20-24° C. and a relative humidity close to 70%, the extent of fungal attack on the leaves was visually assessed as % diseased leaf area.

Puccinia striiformis = test: Use Example 10: preventative control of wheat stripe rust on wheat (PUCCST P7); type: in vivo; conditions: 16 ppm, untreated 90%
Experimental: as §1
Use Example 10. Preventative Control of Wheat Stripe Rust on Wheat Caused by Puccinia striiformis (PUCCST P7)
The first two developed leaves of potted wheat seedling were sprayed to run-off with previously described spray solution, containing the concentration of active ingredient or their mixture as described below. Seven days later the plants were inoculated with spores of Puccinia striiformis. To ensure the success of the artificial inoculation, the plants were transferred to a chamber without light and a temperature of 5° C. for 24 h. Then the trial plants were cultivated for up to 14 days in a greenhouse chamber at 16° C. and a relative humidity of minimum 75%. The extent of fungal attack on the leaves was visually assessed as % diseased leaf area.

Puccinia triticina = test: Use Example 6: preventative control of brown rust on wheat (PUCCRT P7); type: in vivo, Puccinia triticina (syn. P. recondita); conditions: 16 ppm, seven days before inoculation, 9 to 12 days, untreated 85
Experimental: as §1
Use Example 6. Preventative Control of Brown Rust on Wheat Caused by Puccinia triticina (Syn. P. recondita) (PUCCRT P7)
The first two developed leaves of potted wheat seedling were sprayed to run-off with previously described spray solution, containing the concentration of active ingredient or their mixture as described below. Seven days later the plants were dusted with spores of Puccinia triticina. To ensure the success of the artificial inoculation, the plants were transferred to a humid chamber without light and a relative humidity of 95 to 99% and 20 to 24° C. for 24 h. Then the trial plants were cultivated for 9 to 12 days in a greenhouse chamber at 20 to 24° C. and a relative humidity between 65 and 70%. The extent of fungal attack on the leaves was visually assessed as % diseased leaf area.

Phakopsora pachyrhizi [2] = test: Use Example 5: protective control of soybean rust on soybeans (PHAKPA P9); type: in vivo; conditions: 16 ppm, 9 days before inoculation, F129L strain, up to 14 days, untreated 85
Experimental: as §1
Use Example 5. Protective Control of Soybean Rust on Soybeans Caused by Phakopsora pachyrhizi (PHAKPA P9)
as §2, with “cultivated for 9 days in” for “cultivated for 2 days in”, “the success of the artificial” for “the success the artificial”, “for 24 h. The trial” for “for 24 hr. The trial”, “chamber at 23-27° C. and” for “chamber at 23 to 27° C. and”, “diseased leaf area.” for “diseased leaf area, the disease level of untreated controls was usually higher than 85%.”

Phakopsora pachyrhizi [3] = test: Use Example 4: protective control of soybean rust on soybeans (PHAKPA P6); type: in vivo; conditions: 16 ppm, six days before inoculation, F129L strain, up to 14 days, untreated 90
Experimental: as §1
Use Example 4. Protective Control of Soybean Rust on Soybeans Caused by Phakopsora pachyrhizi (PHAKPA P6)
as §2, with “active ingredient as described” for “active ingredient or their mixture as described”, “cultivated for six days in” for “cultivated for 2 days in”, “95% and 23 to 27°” for “95% and 20 to 24°”, “23 to 27° C. for” for “20 to 24° C. for”

CO/C=C(/C(=O)OC)c1cccc(C)c1CO/N=C(\COC)c1c(F)cc(F)cc1F [Compound 4, methyl (E)-3-methoxy-2-[2-[[(Z)-[2-methoxy-1-(2,4,6-trifluorophenyl)ethylidene]amino]oxymethyl]-3-methyl-phenyl]prop-2-enoate]
Diseased leaf area (%) (Phakopsora pachyrhizi [1]): 0%
Diseased leaf area (%) (Pyrenophora teres): 5%
Diseased leaf area (%) (Puccinia striiformis): 0%
Diseased leaf area (%) (Puccinia triticina): 7%
Diseased leaf area (%) (Phakopsora pachyrhizi [2]): 0%
Diseased leaf area (%) (Phakopsora pachyrhizi [3]): 0%

CNC(=O)/C(=N/OC)c1cccc(C)c1CO/N=C(\COC)c1c(F)cc(OC)cc1F [Compound 7, (2E)-2-[2-[[(Z)-[1-(2,6-difluoro-4-methoxy-phenyl)-2-methoxy-ethylidene]amino]oxymethyl]-3-methyl-phenyl]-2-methoxyimino-N-methyl-acetamide]
Diseased leaf area (%) (Phakopsora pachyrhizi [1]): 0%
Diseased leaf area (%) (Puccinia striiformis): 0%
Diseased leaf area (%) (Puccinia triticina): 6%
Diseased leaf area (%) (Phakopsora pachyrhizi [2]): 1%
Diseased leaf area (%) (Phakopsora pachyrhizi [3]): 1%

CNC(=O)/C(=N/OC)c1cccc(C)c1CO/N=C(\COC)c1ccc(F)c(F)c1 [Compound 5, (2E)-2-[2-[[(Z)-[1-(3,4-difluorophenyl)-2-methoxy-ethylidene]amino]oxymethyl]-3-methylphenyl]-2-methoxyimino-N-methyl-acetamide]
Diseased leaf area (%) (Phakopsora pachyrhizi [1]): 0%
Diseased leaf area (%) (Pyrenophora teres): 3%
Diseased leaf area (%) (Puccinia striiformis): 7%
Diseased leaf area (%) (Puccinia triticina): 6%
Diseased leaf area (%) (Phakopsora pachyrhizi [2]): 1%
Diseased leaf area (%) (Phakopsora pachyrhizi [3]): 0%

COC/C(=N\OCc1c(C)cccc1/C(=N\OC)C(=O)OC)c1c(F)cc(F)cc1F [Compound 2, methyl (2E)-2-methoxyimino-2-[2-[[(Z)-[2-methoxy-1-(2,4,6-trifluorophenyl)ethylidene]amino]oxymethyl]-3-methyl-phenyl]acetate]
Diseased leaf area (%) (Phakopsora pachyrhizi [1]): 6%
Diseased leaf area (%) (Pyrenophora teres): 6%
Diseased leaf area (%) (Puccinia striiformis): 11%
Diseased leaf area (%) (Phakopsora pachyrhizi [2]): 2%
Diseased leaf area (%) (Phakopsora pachyrhizi [3]): 7%

CNC(=O)/C(=N/OC)c1cccc(C)c1CO/N=C(\COC)c1c(F)cc(F)cc1F [Compound 1, (2E)-2-methoxyimino-2-[2-[[(Z)-[2-methoxy-1-(2,4,6-trifluorophenyl)ethylidene]amino]oxymethyl]-3-methyl-phenyl]-N-methyl-acetamide]
Diseased leaf area (%) (Phakopsora pachyrhizi [1]): 0%
Diseased leaf area (%) (Pyrenophora teres): 5%
Diseased leaf area (%) (Puccinia striiformis): 13%
Diseased leaf area (%) (Puccinia triticina): 10%
Diseased leaf area (%) (Phakopsora pachyrhizi [2]): 0%
Diseased leaf area (%) (Phakopsora pachyrhizi [3]): 0%

CO/C=C(/C(=O)OC)c1cccc(C)c1CO/N=C(\COC)c1ccc(F)cc1Cl [Compound 3]
Diseased leaf area (%) (Phakopsora pachyrhizi [1]): 1%
Diseased leaf area (%) (Pyrenophora teres): 3%
Diseased leaf area (%) (Puccinia striiformis): 0%
Diseased leaf area (%) (Puccinia triticina): 9%
Diseased leaf area (%) (Phakopsora pachyrhizi [2]): 0%
Diseased leaf area (%) (Phakopsora pachyrhizi [3]): 4%

CO/C=C(/C(=O)OC)c1cccc(C)c1CO/N=C(\COC)c1ccc(Cl)cc1Cl [Compound 6, methyl (E)-2-[2-[[(Z)-[1-(2,4-dichlorophenyl)-2-methoxy-ethylidene]amino]oxymethyl]-3-methyl-phenyl]-3-methoxy-prop-2-enoate]
Diseased leaf area (%) (Phakopsora pachyrhizi [1]): 13%
Diseased leaf area (%) (Pyrenophora teres): 7%
Diseased leaf area (%) (Puccinia striiformis): 0%
Diseased leaf area (%) (Puccinia triticina): 11%
Diseased leaf area (%) (Phakopsora pachyrhizi [2]): 9%
Diseased leaf area (%) (Phakopsora pachyrhizi [3]): 9%

From patent publication US20260317272A1, “USE OF STROBILURIN TYPE COMPOUNDS FOR COMBATING PHYTOPATHOGENIC FUNGI CONTAINING AN AMINO ACID SUBSTITION F129L IN THE MITOCHONDRIAL CYTOCHROME B PROTEIN CONFERRING RESISTANCE TO QO INHIBITORS XVI” (priority 2023, published 2026)
